Patent publication US7670782B2, “Screening of compounds for CAT1 transporter activity” (XenoPort, Inc., priority 2005, dated 2010)
One block for each compound: values may come before it.

Experiments:
hCAT1 [1] = target: T1, hCAT1 (Homo sapiens, UniProt P30825); experiment: hCAT1 competition uptake assay (inhibition of 3H-arginine uptake into LLCPK-TREx-hCAT1 cells); type: cell-based; conditions: 3H-arginine as substrate; for IC50: LLCPK-TREx-hCAT1 cells induced to express hCAT1, 10 minutes at room temperature
T1 construct: expressed in transfected cells; host or cells: LLCPK-TREx (porcine kidney epithelial) cells, induced with tetracycline and butyrate
Protocol: A modified competition uptake assay was developed to determine the ability of a test compound(s) to inhibit the uptake of radiolabeled substrates into LLCPK-TREx-hCAT1 cells induced to over-express hCAT1. The results are stated as affinities (IC50).
The competition uptake assay was prepared as follows: Compounds were prepared for assay by diluting a 100 mM stock concentration (in DMSO) to the appropriate working concentration. Typically, seven-point dose response curves were prepared starting at a final assay concentration of 3 mM and carrying out three-fold dilutions. These dilutions were prepared by making a working “compound” plate that contained a 2×solution of the desired starting concentration of each test compound in duplicate in row A of a v-bottom microtiter plate. Six 3-fold serial dilutions (from row B to G) were made into the sodium free HBSS assay buffer (60 mg/L KH2PO4 (0.4 mM) (Sigma; P-0662); 0.42 g/L KHCO3 (4.17 mM); (Sigma; P-6037); 1 g/L Glucose ([…]) (Sigma; G-7528); 2.1 g/L MOPS (10 mM) (Sigma; M-1254); 1.05 ml/L MgCl2.(H2O)6 (Sigma; M-1028); 100 mg/L MgSO4.(H2O)7 (Sigma; M-5921); 140 mg/L CaCl2 (1.3 mM)(Sigma; C-5080); 19.1 g/L Choline Chloride (137 mM) (Sigma; C-7527), pH to 7.4 with KOH) with the appropriate amount of DMSO so that the DMSO concentration remained constant at all dilutions. The resulting “compound” plate contained serial dilutions of six compounds in duplicate. The final row (H) of the assay plate was filled with HBSS buffer alone (H1-H6) or 10 mM unlabeled Arginine in HBSS (H7-H12) to measure the total or non-specific uptake, respectively.
^3H-Arginine was diluted into HBSS buffer to a final concentration of 4,000 cpm/μl. Sufficient solution was prepared to allow addition of 25 μl/well (the final concentration was 100,000 cpm/well).
LLCPK-TREx-hCAT1 cells, plated in 96-well plates and treated with 2 mM butyrate and tetracycline (or tet analog (e.g., doxycycline), were removed from the CO2 incubator. Growth media was removed from the cells, and the cells were washed twice in room temperature HBSS (100 μl/well/wash) using a 96-well plate washer (Bio Tek ELX405). Alternatively, cells were washed manually with equivalent volumes using a multichannel pipettor. Immediately before beginning the assay, the final 100 μl wash solution was removed from the cells by aspiration.
Using a 96-well pipettor, 25 μl from the “compound” plate was added to each well of the cell plate. The assay was started by adding 25 μl of the ^3H-Arginine working solution. The plate was incubated at room temperature for 10 minutes. The assay was stopped by washing the cells four times with ice-cold HBSS buffer using a ELX405 plate washer (100 μl buffer/well/wash) having an angled buffer dispenser.
Scintillation fluid (200 μl) (Optiphase Supermix (Perkin Elmer) was added to each well, and the plate was covered with a 96-well adhesive plate cover and placed on a shaker for 20 minutes. The plates were counted on a 96-well plate scintillation counter for 60 sec/well. The data were analyzed using a sigmoidal dose response curve-fitting program (Prism, GraphPad, Inc, San Diego, Calif.; equation: one-site competition).
The competition experiment was performed as described in Example 7. Non-specific uptake was determined by measuring the uptake into cells not induced to express the transporter (“no tet”). […] In control cells, uptake of labeled arginine remained at background levels and was largely unaffected by an excess of unlabeled substrates.

PgP = target: T2, PgP (Homo sapiens, UniProt P08183); experiment: Transwell monolayer efflux assay in MDCK cells transfected with TREx-PgP; type: in vitro ADME; conditions: 2.5 nM 3H-vinblastine, absence and presence of 250 μM verapamil
T2 construct: purchased BD Biosciences; host or cells: baculovirus membranes
Protocol: Transwell monolayer efflux assays can be performed by transfecting MDCK cells with the tetracycline-inducible TREx-PgP expression vector. The cells optionally can be transfected with a nucleic acid encoding the transporter of interest. The transfected cells are seeded on polycarbonate filter membranes in transwell dishes and grown for 3-5 days, yielding a polarized monolayer with tight junctions between cells.

hCAT1 [2] = target: T1, hCAT1; experiment: hCAT1 direct uptake assay (LC-MS-MS, LLCPK-TREx-hCAT1 cells induced vs no tet); type: cell-based; conditions: direct uptake into LLCPK-TREx-hCAT1 cells
Protocol: Four concentrations (bracketing the affinity as measured by competition assays) per compound were routinely tested. Non-specific uptake was determined by measuring the uptake into cells not induced to express the transporter (“no tet”).
Typically, four concentrations bracketing the IC50 were tested. […] The samples were robustly vortexed and centrifuged for 10 minutes at 13,200 rpm to spin down any precipitate. […] Three additional 2-fold dilutions were made in the subsequent rows (B-D or […]) in HBSS.
An internal standard of 50 μM propranolol in 50:50 ethanol:water was also prepared.
The cells were washed twice in room temperature HBSS (100 μl/well/wash) using a 96-well plate washer (Bio Tek ELX405). Alternatively, cells were washed manually with equivalent volumes using a multichannel pipettor. Immediately before the assay was begun, the final 100 μl wash solution was removed from the cells.
After the final wash, as much of the wash buffer as possible was removed by aspirating the wells with a probe that reached the bottom of the wells. (Residual salts from the wash buffer can adversely affect the LC-MS-MS by disrupting the LC method or by suppressing the MS signal.) 150 μl of a 50:50 ethanol:water solution was added to each well to lyse the cells and extract the test compound. The plate was covered and allowed to sit for 20 minutes at room temperature to ensure cell lysis.
120 μl of the cell extract was removed from each well and transferred to a fresh 96-well v-bottom polypropylene plate. This plate was covered with an adherent cover (top seal) and centrifuged for 15 minutes at 5,700 rpm (Allegra 25R centrifuge) at 4° C. to pellet any cell precipitate. 10 μl of the 50 μM propranolol solution was added to each well of a fresh 96-well plate (a plate amenable for sampling in the LC-MS-MS). […] The levels of intracellular compounds were determined by converting the peak area to concentration by extrapolating from the standard curve for each compound. Uptake was expressed as μM/well.

T1 sequence (P30825 whole entry): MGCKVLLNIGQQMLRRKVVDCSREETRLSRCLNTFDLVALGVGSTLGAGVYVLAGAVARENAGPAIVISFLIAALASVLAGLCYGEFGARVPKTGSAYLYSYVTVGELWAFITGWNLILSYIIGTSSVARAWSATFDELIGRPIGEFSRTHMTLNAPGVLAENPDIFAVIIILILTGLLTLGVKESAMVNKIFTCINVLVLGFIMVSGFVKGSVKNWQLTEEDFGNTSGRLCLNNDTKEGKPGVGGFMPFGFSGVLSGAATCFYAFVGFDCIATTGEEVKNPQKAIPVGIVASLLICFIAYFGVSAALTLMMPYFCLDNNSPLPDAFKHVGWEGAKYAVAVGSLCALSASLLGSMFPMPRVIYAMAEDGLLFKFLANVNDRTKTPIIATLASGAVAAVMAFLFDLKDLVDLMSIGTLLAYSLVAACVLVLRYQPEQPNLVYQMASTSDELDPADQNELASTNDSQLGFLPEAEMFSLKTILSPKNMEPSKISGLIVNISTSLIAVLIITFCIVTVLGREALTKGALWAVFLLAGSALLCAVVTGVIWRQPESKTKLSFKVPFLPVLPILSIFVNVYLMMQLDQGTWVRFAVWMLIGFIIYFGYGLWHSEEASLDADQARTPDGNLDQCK
T2 sequence (P08183 whole entry): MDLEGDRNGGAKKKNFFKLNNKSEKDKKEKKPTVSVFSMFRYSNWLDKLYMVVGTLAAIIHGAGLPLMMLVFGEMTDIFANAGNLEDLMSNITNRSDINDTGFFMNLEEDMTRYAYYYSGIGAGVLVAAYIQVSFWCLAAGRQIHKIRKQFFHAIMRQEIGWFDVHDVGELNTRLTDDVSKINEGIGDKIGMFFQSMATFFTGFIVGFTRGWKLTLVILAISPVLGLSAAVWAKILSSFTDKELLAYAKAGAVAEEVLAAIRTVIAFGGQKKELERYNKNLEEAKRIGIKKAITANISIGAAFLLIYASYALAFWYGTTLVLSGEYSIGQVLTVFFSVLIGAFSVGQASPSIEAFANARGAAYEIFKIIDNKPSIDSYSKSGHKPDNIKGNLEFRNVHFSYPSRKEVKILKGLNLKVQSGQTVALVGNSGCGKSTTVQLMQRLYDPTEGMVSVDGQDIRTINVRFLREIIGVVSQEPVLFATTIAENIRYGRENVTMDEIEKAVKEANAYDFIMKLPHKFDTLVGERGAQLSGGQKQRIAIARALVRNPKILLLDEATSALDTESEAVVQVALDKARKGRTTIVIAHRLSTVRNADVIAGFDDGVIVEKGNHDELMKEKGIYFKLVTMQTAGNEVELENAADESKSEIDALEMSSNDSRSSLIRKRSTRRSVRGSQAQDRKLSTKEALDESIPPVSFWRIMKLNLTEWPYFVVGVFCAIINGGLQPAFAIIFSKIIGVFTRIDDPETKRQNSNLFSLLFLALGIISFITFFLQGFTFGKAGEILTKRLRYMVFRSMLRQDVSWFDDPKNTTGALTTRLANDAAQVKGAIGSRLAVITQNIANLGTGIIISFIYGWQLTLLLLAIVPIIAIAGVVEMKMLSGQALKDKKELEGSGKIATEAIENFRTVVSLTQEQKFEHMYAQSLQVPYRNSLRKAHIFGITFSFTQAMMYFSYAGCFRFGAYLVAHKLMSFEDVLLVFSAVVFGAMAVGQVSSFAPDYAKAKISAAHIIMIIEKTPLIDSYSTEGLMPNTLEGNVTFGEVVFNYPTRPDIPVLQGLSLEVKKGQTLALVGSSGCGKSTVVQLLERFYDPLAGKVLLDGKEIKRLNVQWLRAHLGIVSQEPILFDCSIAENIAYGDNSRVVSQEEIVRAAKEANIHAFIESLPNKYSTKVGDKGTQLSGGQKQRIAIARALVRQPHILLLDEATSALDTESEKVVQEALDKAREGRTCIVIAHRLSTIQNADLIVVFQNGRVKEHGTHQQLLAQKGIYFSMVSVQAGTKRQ

Compound: NCCCC[C@H](N)C(=O)O [Lysine, lysine]
IC50 (hCAT1 [1]): 140 µM

Compound: CC[C@]1(O)C[C@@H]2CN(CCc3c([nH]c4ccccc34)[C@@](C(=O)OC)(c3cc4c(cc3OC)N(C)[C@H]3[C@@](O)(C(=O)OC)[C@H](OC(C)=O)[C@]5(CC)C=CCN6CC[C@]43[C@@H]65)C2)C1 [^3H-vinblastine, vinblastine]
PgP substrate status from apical to basolateral and basolateral to apical transport (PgP): substrate of PgP

Compound: N-methyl arginine [N-Me-Arg]
pIC50 (hCAT1 [1]; LLCPK-TREx-hCAT1 cells induced to express hCAT1): 3.7
IC50 (hCAT1 [1]): 190 µM
pKm (hCAT1 [2]): 3.8
Vmax (hCAT1 [2]; 5 minutes at room temperature): 3.9 μM/well
Km (hCAT1 [2]; 5 minutes at room temperature, specific uptake (+TET minus no TET)): 158 µM

Further lines, results first:

IC50 (hCAT1 [1]): 83 µM
Compound: N=C(N)NCCC[C@H](N)C(=O)O [Arginine, arginine]

IC50 (hCAT1 [1]): 73 µM
Compound: NCCC[C@H](N)C(=O)O [Ornithine, ornithine]
